IC50 and Ki data for 16 compounds are collected here from ChEMBL document CHEMBL1909046, “DrugMatrix in vitro pharmacology data”.

The target in assay [1] is Beta-3 adrenergic receptor (Homo sapiens, UniProt P13945). The assay is described as follows: DRUGMATRIX: Adrenergic beta3 radioligand binding (ligand: [125I] Cyanopindolol). The conditions noted are these: hek293; Not Active = under 50% inhibition at 10 µM. It counts as cell membranes, HEK293, Membrane.
A short description of assay [2]: DRUGMATRIX: Glutamate, AMPA radioligand binding (ligand: [3H] AMPA). The conditions noted are these: Not Active = under 50% inhibition at 10 µM. The class given is cell membranes, Rattus norvegicus, Wistar, Cerebral cortex, Membrane.
In assay [3] the target is T1, 3-hydroxy-3-methylglutaryl-coenzyme A reductase (Homo sapiens, UniProt P04035).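 Also: enzyme inhibition assay of HMG-CoA reductase using radiolabeled [14C]HMG-CoA as substrate; in other assays of this panel Not Active means under 50% inhibition at 10 µM.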
T1 sequence (P04035 whole entry): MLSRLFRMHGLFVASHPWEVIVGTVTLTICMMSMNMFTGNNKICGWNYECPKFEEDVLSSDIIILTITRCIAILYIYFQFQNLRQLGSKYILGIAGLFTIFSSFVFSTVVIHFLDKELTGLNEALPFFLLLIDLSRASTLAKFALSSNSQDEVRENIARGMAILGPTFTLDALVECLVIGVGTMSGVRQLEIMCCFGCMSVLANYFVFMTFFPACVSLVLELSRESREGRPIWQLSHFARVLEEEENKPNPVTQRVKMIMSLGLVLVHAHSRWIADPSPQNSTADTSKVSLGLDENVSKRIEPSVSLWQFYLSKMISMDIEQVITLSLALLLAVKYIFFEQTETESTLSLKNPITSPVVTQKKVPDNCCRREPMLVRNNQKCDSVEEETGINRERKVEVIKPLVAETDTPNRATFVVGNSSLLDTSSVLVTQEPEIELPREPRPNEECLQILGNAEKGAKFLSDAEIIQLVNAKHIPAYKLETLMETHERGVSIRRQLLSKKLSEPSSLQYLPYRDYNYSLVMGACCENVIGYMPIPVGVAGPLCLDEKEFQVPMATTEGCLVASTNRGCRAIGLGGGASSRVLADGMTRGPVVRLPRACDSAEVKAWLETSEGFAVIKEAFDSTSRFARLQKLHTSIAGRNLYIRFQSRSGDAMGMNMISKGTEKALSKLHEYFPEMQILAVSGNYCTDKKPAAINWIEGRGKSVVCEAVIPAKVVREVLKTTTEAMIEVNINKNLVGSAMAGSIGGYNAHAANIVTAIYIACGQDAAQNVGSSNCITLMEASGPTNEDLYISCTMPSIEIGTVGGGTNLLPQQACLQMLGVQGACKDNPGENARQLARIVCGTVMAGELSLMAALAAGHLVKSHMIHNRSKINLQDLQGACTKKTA
Details: species or system Escherichia coli.

The nature of assay [4]: DRUGMATRIX: Potassium Channel [KATP] radioligand binding (ligand: [3H] Glyburide). It counts as cell membranes, Membrane. The conditions noted are these: hit-t15; Not Active = under 50% inhibition at 10 µM.
The target in the next assay is T2, Caspase-1 (Homo sapiens, UniProt P29466).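 Also: Caspase-1 enzyme inhibition assay with a peptide substrate; in other assays of this panel Not Active means under 50% inhibition at 10 µM.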
T2 sequence (P29466 whole entry): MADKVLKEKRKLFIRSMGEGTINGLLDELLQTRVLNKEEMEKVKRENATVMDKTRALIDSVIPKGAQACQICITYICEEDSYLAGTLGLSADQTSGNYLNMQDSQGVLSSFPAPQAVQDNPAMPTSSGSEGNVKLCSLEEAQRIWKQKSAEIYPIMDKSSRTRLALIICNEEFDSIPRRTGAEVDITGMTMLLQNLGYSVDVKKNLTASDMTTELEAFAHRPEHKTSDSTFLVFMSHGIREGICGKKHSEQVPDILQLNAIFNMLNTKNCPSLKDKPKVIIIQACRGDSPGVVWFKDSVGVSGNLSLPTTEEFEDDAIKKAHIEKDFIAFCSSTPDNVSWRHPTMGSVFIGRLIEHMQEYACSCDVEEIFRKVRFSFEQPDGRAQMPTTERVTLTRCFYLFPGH
Details: species or system Escherichia coli.

Assay [5] has as its target Epidermal growth factor receptor (Homo sapiens, UniProt P00533). Nature of the assay: DRUGMATRIX: Protein Tyrosine Kinase, EGF Receptor enzyme inhibition (substrate: Poly(Glu:Tyr)). It counts as cell-based, Insect cells. The note with it: insect cells; Not Active = under 50% inhibition at 10 µM.
For assay [6], the target named is Tyrosine-protein kinase Lck (Homo sapiens, UniProt P06239). The assay is described as follows: DRUGMATRIX: Protein Tyrosine Kinase, LCK enzyme inhibition (substrate: Poly(Glu:Tyr)). The class given is cell-based, Insect cells. The note with it: Not Active = under 50% inhibition at 10 µM.
Tyrosine-protein kinase Lck, sequence (P06239 whole entry): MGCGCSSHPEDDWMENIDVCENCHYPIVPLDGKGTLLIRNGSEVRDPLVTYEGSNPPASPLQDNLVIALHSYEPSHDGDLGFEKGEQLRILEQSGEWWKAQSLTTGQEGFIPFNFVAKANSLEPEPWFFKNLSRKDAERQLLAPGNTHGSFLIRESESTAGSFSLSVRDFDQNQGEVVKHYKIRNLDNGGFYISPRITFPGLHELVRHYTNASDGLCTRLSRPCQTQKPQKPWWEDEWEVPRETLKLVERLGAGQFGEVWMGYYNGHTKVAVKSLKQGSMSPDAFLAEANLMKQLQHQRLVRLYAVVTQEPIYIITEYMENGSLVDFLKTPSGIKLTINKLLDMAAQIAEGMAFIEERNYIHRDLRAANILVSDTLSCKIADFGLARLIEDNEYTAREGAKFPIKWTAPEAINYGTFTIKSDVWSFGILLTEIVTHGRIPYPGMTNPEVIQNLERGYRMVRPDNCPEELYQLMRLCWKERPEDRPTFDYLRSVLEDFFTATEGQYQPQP

Beta-3 adrenergic receptor, sequence (P13945 whole entry): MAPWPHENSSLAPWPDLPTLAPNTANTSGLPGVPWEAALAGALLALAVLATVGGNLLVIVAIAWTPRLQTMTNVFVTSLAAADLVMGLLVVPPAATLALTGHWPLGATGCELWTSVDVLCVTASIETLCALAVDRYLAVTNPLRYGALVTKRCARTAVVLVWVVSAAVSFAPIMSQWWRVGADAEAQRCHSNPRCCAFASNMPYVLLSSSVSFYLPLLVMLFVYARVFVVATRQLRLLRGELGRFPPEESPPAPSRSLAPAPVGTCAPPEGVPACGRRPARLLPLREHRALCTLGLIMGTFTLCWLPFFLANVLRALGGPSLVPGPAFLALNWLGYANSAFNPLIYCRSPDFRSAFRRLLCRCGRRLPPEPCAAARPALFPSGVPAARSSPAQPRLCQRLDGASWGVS

A word on the IC50: it is the midpoint of a concentration-inhibition curve. On to `CO[C@@]12[C@H](COC(N)=O)C3=C(C(=O)C(C)=C(N)C3=O)N1C[C@@H]1N[C@@H]12` [MITOMYCIN], for which the IC50 entry (in assay [1]; in assay [2]; in assay [3]; in assay [4]; against Caspase-1; in assay [5]) was “Not Active” in each case. Also, the IC50 entry in assay [6] (insect cells) is given as “Not Active”. The Ki entry in assay [2] and in assay [4] was “Not Active” each time.

For the compound `Cc1ccc(S(=O)(=O)NC(=O)NN2CCCCCC2)cc1` [TOLAZAMIDE], the IC50 entry (in assay [1]; in assay [2]; in assay [3]; in assay [4]; on Caspase-1; in assay [5]) was “Not Active” each time. The IC50 entry in assay [6] (insect cells) is “Not Active”. The Ki result in assay [2] and in assay [4] was “Not Active” throughout.

Turning to LEAD(IV) ACETATE, the IC50 entry (in assay [1]; in assay [2]; in assay [3]; in assay [4]; at Caspase-1; in assay [5]) was “Not Active” throughout. The IC50 entry in assay [6] (insect cells) was “Not Active”. Moreover, the Ki entry (in assay [1]; in assay [2]; in assay [3]; in assay [4]; on Caspase-1; in assay [5]) was “Not Active” in each case. Also, the Ki entry in assay [6] (insect cells) is “Not Active”.

As to `CCN1CCCC1CNC(=O)c1cc(S(N)(=O)=O)ccc1OC` (centres undefined) [SULPIRIDE], the IC50 entry (in assay [1]; in assay [2]; in assay [3]; in assay [4]; at Caspase-1; in assay [5]) was “Not Active” each time. In addition, the IC50 entry in assay [6] (insect cells) is “Not Active”. The Ki entry in assay [2] and in assay [4] was “Not Active” each time.

With `CC[C@H](C)C(=O)O[C@H]1CCC=C2C=C[C@H](C)[C@H](CC[C@@H]3C[C@@H](O)CC(=O)O3)[C@H]21` [MEVASTATIN], the IC50 entry is “Not Active” in assay [1]; “Not Active” in assay [2]; 119 nM in assay [3] (read-out: IC50); “Not Active” in assay [4]; “Not Active” at Caspase-1; “Not Active” in assay [5]. Moreover, the IC50 entry in assay [6] (insect cells) is “Not Active”. Moreover, the Ki result in assay [2] and in assay [4] was “Not Active” in each case.

For `CN1C[C@H](CNC(=O)OCc2ccccc2)C[C@@H]2c3cccc4c3c(cn4C)C[C@H]21` [METERGOLINE], the IC50 entry (in assay [1]; in assay [2]; in assay [3]; in assay [4]; against Caspase-1; in assay [5]) was “Not Active” throughout. The IC50 result in assay [6] (insect cells) was “Not Active”. For the same compound, the Ki entry in assay [2] and in assay [4] was “Not Active” each time.

Turning to `Oc1ccc(/C=C/c2cc(O)cc(O)c2)cc1` [RESVERATROL], the IC50 entry (in assay [1]; in assay [2]; in assay [3]; in assay [4]; against Caspase-1; in assay [5]) was “Not Active” in each case. Further, in assay [6] (insect cells), the IC50 entry was “Not Active”. Further, the Ki entry in assay [2] and in assay [4] was “Not Active” throughout.

For `CC1=C(/C=C/C(C)=C/C=C/C(C)=C/C(=O)O)C(C)(C)CCC1` [TRETINOIN], the IC50 result (in assay [1]; in assay [2]; in assay [3]; in assay [4]; against Caspase-1; in assay [5]) was “Not Active” in each case. In addition, the IC50 entry in assay [6] (insect cells) was “Not Active”. Besides, the Ki result in assay [2] and in assay [4] was “Not Active” each time.

For the compound `CC[C@@]1(O)C(=O)OCc2c1cc1n(c2=O)Cc2cc3c(CN(C)C)c(O)ccc3nc2-1` [TOPOTECAN], the IC50 entry (in assay [1]; in assay [2]; in assay [3]; in assay [4]; at Caspase-1; in assay [5]) was “Not Active” throughout. Also, in assay [6] (insect cells), the IC50 entry is on record as “Not Active”. Moreover, the Ki result in assay [2] and in assay [4] was “Not Active” in each case.

For the compound `O=C(OC[C@H]1O[C@@H](OC(=O)c2cc(O)c(O)c(OC(=O)c3cc(O)c(O)c(O)c3)c2)[C@H](OC(=O)c2cc(O)c(O)c(OC(=O)c3cc(O)c(O)c(O)c3)c2)[C@@H](OC(=O)c2cc(O)c(O)c(OC(=O)c3cc(O)c(O)c(O)c3)c2)[C@@H]1OC(=O)c1cc(O)c(O)c(OC(=O)c2cc(O)c(O)c(O)c2)c1)c1cc(O)c(O)c(OC(=O)c2cc(O)c(O)c(O)c2)c1` [TANNIC ACID], the IC50 entry in assay [1] was “Not Active”; in assay [2], “Not Active”; in assay [3] (read-out: IC50), 3130 nM; in assay [4], “Not Active”; at Caspase-1, “Not Active”; in assay [5] it was “Not Active”. Also, in assay [6] (read-out: IC50), the IC50 came out at 79 nM. In addition, the Ki result in assay [2] and in assay [4] was “Not Active” each time.

On to `CC(Cl)(Cl)Cl` [TRICHLOROETHANE], for which the IC50 entry (in assay [1]; in assay [2]; in assay [3]; in assay [4]; against Caspase-1; in assay [5]) was “Not Active” throughout. In assay [6] (insect cells), the IC50 result is recorded as “Not Active”. Further, the Ki result in assay [2] and in assay [4] was “Not Active” throughout.

Take `C=CCc1ccc2c(c1)OCO2` [SAFROLE]: the IC50 result (in assay [1]; in assay [2]; in assay [3]; in assay [4]; against Caspase-1; in assay [5]) was “Not Active” throughout. Further, the 50% inhibitory concentration (IC50) result in assay [6] (insect cells) is “Not Active”. Besides, the Ki result in assay [2] and in assay [4] was “Not Active” each time.

As to `O=C1CC[C@@]2(O)[C@H]3Cc4ccc(O)c5c4[C@@]2(CCN3CC2CC2)[C@H]1O5` [NALTREXONE], the IC50 entry (in assay [1]; in assay [2]; in assay [3]; in assay [4]; against Caspase-1; in assay [5]) was “Not Active” throughout. For the same compound, the IC50 entry in assay [6] (insect cells) is recorded as “Not Active”. Further, the Ki result in assay [2] and in assay [4] was “Not Active” in each case.

In the case of `CN1C(=O)OC(C)(C)C1=O` [TRIMETHADIONE], the IC50 result (in assay [1]; in assay [2]; in assay [3]; in assay [4]; at Caspase-1; in assay [5]) was “Not Active” each time. The half-inhibitory concentration (IC50) result in assay [6] (insect cells) is on record as “Not Active”. The Ki result in assay [2] and in assay [4] was “Not Active” throughout.

Consider `CC(O)C(=O)O` (centres undefined) [LACTIC ACID], for which the IC50 result (in assay [1]; in assay [2]; in assay [3]; in assay [4]; against Caspase-1; in assay [5]) was “Not Active” each time. Also, in assay [6] (insect cells), the IC50 entry is recorded as “Not Active”. In addition, the Ki result in assay [2] and in assay [4] was “Not Active” throughout.

With `CS(=O)(=O)c1ccc(C2=C(c3ccccc3)C(=O)OC2)cc1` [ROFECOXIB], the IC50 result (in assay [1]; in assay [2]; in assay [3]; in assay [4]; against Caspase-1; in assay [5]) was “Not Active” each time. In addition, the IC50 entry in assay [6] (insect cells) is reported as “Not Active”. The Ki entry in assay [2] and in assay [4] was “Not Active” each time.
